From patent publication US5663207A, “Gem-dichlorocyclopropanes as antitumor agents” (priority 1995, dated 1997)
Entries after “also recorded” stand apart in the source; their conditions may differ. Where two headings read alike, the source gives them in different places.

Legend:
[1] = Stability observed during isolation and storage; assay type: physicochemical; details: on concentration, drying or storage
Experimental: The structures of all compounds were supported by their proton NMR spectra, which were measured on either a Varian EM-360A or XL-300 spectrometer. The spectra are reported in parts per million in CDCl3 unless otherwise noted, with tetramethysilane as the internal standard. Infrared spectra were obtained from KBr pellets on a Beckman Acculab 1 spectrometer and were consistent with the assigned structures. Silica gel (for example, obtained commercially from J. T. Baker) of approximately 40 μm diameter was used for flash chromatography (STILL, W. C., KAHN, M. AND MITRA, A. (1978), "Rapid chromatographic technique for preparative separations with moderate resolutions", Journal of Organic Chemistry, 43, 2923), which was performed at 5-10 psi. Petroleum ether was of bp 30°-60° C. When necessary, solvents or reagents were dried by appropriate methods. Evaporations were carried out in vacuo on a rotary evaporator or under a stream of dry N2. Melting points were taken on a Thomas-Hoover capillary melting point apparatus and are uncorrected. Reaction progress and product purity were monitored by analytical TLC on strips of Eastman Kodak plastic-backed SiO2 60 F254 or Al2 O3 F254. Developed strips were viewed under light of 254 and 365 nm wavelengths. Elemental analyses were done by Midwest Microlab Ltd., Indianapolis, IN. Acceptable elemental results are denoted in Table I by the formula, followed by the elements analyzed. Melting points and yields of all compounds were based on pure samples unless otherwise noted, are listed in Table I. Para-Bromoanisole, p-methoxydeoxybenzoin, anisole, p-methoxybenzaldehyde, and 2,3-bis-(p-methoxyphenyl)-acrylic acid and trans-p-methoxystilbene (the olefin), were purchased from Aldrich & Co. The cyclopropanes 1,1-dichloro-cis-2-(p-hydroxyphenyl)-3-phenylcyclopropane (9), and its trans isomer 1,1-dichloro-trans-2-(p-Hydroxyphenyl)-3phenylcyclopropane (17) were prepared from Compounds 8 & 16, respectively. […] Tamoxifen was obtained from Stuart Pharmaceuticals, Division of ICI Americas, Inc., Wilmington, Del. 19897. MER 25 was obtained from the Merrell Dow Research Institute, Division of Merrell Dow Pharmaceuticals, Inc., Cincinnati, Ohio. Protein Assay Reagent, Pierce Chemical Co., Rockford, Ill. 61105. Diethylstilbestrol, β-estradiol, EDTA, DL-dithiothreitol, Sodium molybdate, and Tris (hydroxymethyl) aminomethane hydrochloride were purchased from Sigma Chemical Co., St. Louis, Mo. 63178.
Essentially, the intermediate olefin acids (Compounds 6 & 12) were obtained from a mixed Perkin and Knoevenagel-type condensation involving the reaction of p-methoxyaldehyde (Compound 4) with phenylacetic acid (Compound 5), or p-methoxyphenylacetic acid (Compound 11) in triethylamine and acetic anhydride. To prepare cis-p-methoxystilbene (Compound 7) or bis-(p-methoxy)-cis-stilbene (Compound 13). Decarboxylation of 6 & 12 with quinoline (prevents isomerizations; KLEIN, J. AND MEYER, A. Y. (1964), "The decarboxylation of α-cyano-and α-carboxycinnamic acids", Journal of Organic Chemistry, 29, 1038), and copper chromite at elevated temperature provided 7 & 13. High temperature during distillation caused 8% isomerization to the trans-isomer (15), which was isolated by column chromatography. Dichlorocarbene generation used the catalytic phase transfer method (21, 37) (used extensively in our laboratory) of 50% aqueous solution of NaOH, CHCl3 and benzyltriethylammonium chloride (TEBA) as the anion transfer agent. […]

[2] = tested on: MCF-7 human breast cancer cells; test: In vitro MCF-7 human breast cancer cell growth inhibition assay; assay type: cell-based; details: for inhibition at 1 µM: Homo sapiens
Excerpt: The biological evaluation of the test compounds consisted of the in vitro rat cytosolic estradiol receptor binding assay, the in vivo immature mouse uterotrophic (estrogenic) and antiuterotrophic (antiestrogenic) assays, and the in vitro suppression of the proliferation of the ER positive MCF-7 human breast cancer cell line. Estradiol (pure agonist), TAM (agonist in mice and antagonist in MCF-7), MER 25 (pure antagonist) and Analog II (antagonist in mice) were used in the assay as standards.
MCF-7 (estrogen-receptor positive) human breast cancer cells (obtained from the Michigan Cancer Foundation, Detroit, Mich.) were grown at 37° C. in 75 cm^2 tissue culture (T-75) flasks, as monolayer cultures in RPMI 1640 phenol red-free media supplemented with 2 mM L-glutamine, gentamicin (50 μg/mL), penicillin (100 units/mL), streptomycin (100 μg/mL ) and calf serum (5%). Cultures were grown in an incubator 37° C. in a humid 5% CO2 atmosphere, and fed on alternate days. Expotential growth was maintained by subculturing at eight day intervals when the cells per T-75 flask reached 10 to 12×10^6 cells. Cells were trypsinized, washed and plated in multiwell plates at a density of 5×10^4 cells/well in 3 mL of RPMI 1640 media. The cells were allowed to attach and were in logarithmic growth when the test compounds were added. The test compounds (10^-6 M) in the presence or absence of a 10-fold lower dose of estradiol were dissolved in a polyethylene glycol 400: ethanol (55:45) mixture and added in the culture media in duplicate. Control samples received vehicle alone at the same concentration used in the treatment groups. The final concentration of the vehicle mixture was 0.1% of the incubation media. Cell growth was measured on alternate days using the hemocytometric trypan blue exclusion method. Percent inhibition of MCF-7 cells was calculated as the ratio of the control mean cell count per well minus the treatment group mean cell count per well to the control mean cell count per well, multiplied by 100.
^b % MCF7 inhibition was calculated as follows: […]
Thirteen compounds, Analog II, TAM, and MER 25 were tested for their antiproliferative activity in the MCF-7 human breast cancer cell line (Table II). Compounds were tested at a concentration of 10^-6 M in the presence or absence of 10^-7 M estradiol to assess their ability to alter the growth of the calls (Table II). The 10^-6 M concentration was selected since it was reported that the inhibition of the MCF-7 cells by antiestrogens and TAM occurred either at that concentration or less, and were both selective and estrogen receptor specific. Concentrations of antiestrogens greater than 5×10^-6 M were reported to have nonspecific cytotoxic effects (BRIAND, P. AND […], A. E. (1984), "Effect of estrogen and antiestrogen on the human breast cancer cell line MCF-7 adapted to growth at low serum concentration", Cancer Research, 44, 1114).

Compound | stability (in words) [1] | effect on MCF-7 cell growth (in words) ([2]; 10^-6 M) | inhibition at 1 µM ([2]; MCF7, 10^-6 M, versus control mean cell count, read-out: MCF-7 Inhibition) | reversal of growth inhibition by estradiol (in words) ([2]; 10^-7 M estradiol) | inhibition at 1 µM ([2]; MCF7, read-out: MCF-7 Inhibition) | effect on estradiol-induced cell growth (in words) ([2]; with 10^-7 M estradiol)
CC(=O)Oc1ccc([C@H]2[C@@H](c3ccccc3)C2(Cl)Cl)cc1 (relative stereo) [Compound 10, 1,1-Dichloro-cis-2-(p-acetoxyphenyl)-3-phenylcyclopropane] | stable light-yellow oil at 0 °C | inhibited cell growth | 32% | – | – | –
Oc1ccc(C2(c3ccc(O)cc3)C(Cl)(Cl)C23CCCCC3)cc1 [Compound 30, 1,1-Dichloro-2,2-bis-(p-hydroxyphenyl)-spiro[2.5]octane] | gradually turned to light-orange; also recorded: underwent a gradual color change | active inhibitors of cell growth | – | reversed by 10^-7 M estradiol | 21.3% | enhanced estradiol-induced cell growth above the control
